Experimental data taken from patent US20020051821A1, “Aliginate particle formulation” (priority 2000, published 2002).

Format: in vitro ADME
Settings: human, topical or ocular, 3 mg
Procedure: For a composition performance test that more closely parallels eventual practical use, candidate particle compositions can be injected into dermatomed, full thickness human skin samples. Replicate skin samples after injection can be placed on modified Franz diffusion cells containing 32° C. water, physiologic saline or buffer. Additives such as surfactants may be used to prevent binding to diffusion cell components and to maintain sink conditions. Two kinds of measurements can be made to assess performance of the formulation in the skin.
To measure the formulation performance in vitro, the active (guest) component(s) of candidate compositions can be collected by complete or aliquot replacement of the Franz cell receiver solution at predetermined time intervals for chemical assay using HPLC or other suitable analytical technique. Concentration data can be used to generate a delivery profile and calculate a steady state permeation rate. This technique can be used to screen formulations for early indication of drug binding to skin, drug dissolution, efficiency of particle penetration of stratum corneum, etc., prior to in vivo studies.
Modified Franz cells (6.9 ml) were designed for investigation of transdermal flux (FIG. 1). […]

For Alginate, which Bioavailability is on record?
Its Bioavailability is 63.8%.

With lysozyme [Neat lysozyme] as the substance, how does the Bioavailability read?
Its Bioavailability is 7.1%.
